The target in experiment [1] is T1, purified LasB protein from P. aeruginosa (Pseudomonas aeruginosa, UniProt P14756).
T1 construct: purchased Merck or Charles River Laboratories
Nature of the experiment: Fluorometric assay to determine Ki (purified LasB, Abz-Ala-Gly-Leu-Ala-p-Nitro-Benzyl-Amide substrate). Type of experiment: biochemical. The procedure:
(§1) Experiments were therefore conducted (1) to measure the potency of inhibition of compounds of the invention against purified Pseudomonas aeruginosa LasB enzyme and also experiments were conducted (2) to measure the ability of compounds of the invention to inhibit LasB-catalysed elastin degradation. The first assay uses a commercial fluorescent synthetic peptide and purified LasB enzyme. The LasB hydrolysis kinetics are measured allowing the determination of the IC50 and Ki of the inhibitors; the second is a more physiological assay using dialysed Pseudomonas aeruginosa supernatant as source of enzyme, plus its natural substrate Elastin. It is an “end point assay” that determines the percentage of LasB inhibition by each compound for one particular time point and inhibitor concentration. Technical details are described below:
This assay uses commercially available substrate (Abz-Ala-Gly-Leu-Ala-p-Nitro-Benzyl-Amide (Ex: 340 nm, Em: 415 nm) from Peptide International) and purified LasB protein from P. aeruginosa (provided by Merck or Charles River Laboratories). It is performed to determine LasB elastase activity and assess compound inhibition in 96-well plate format. All compounds of Formula (I) were assessed using the method described below.
Method: 10 to 140 ng/ml purified LasB is incubated with 250 μM Abz-Ala-Gly-Leu-Ala-p-Nitro-Benzyl-Amide in 50 mM Tris-HCl pH 7.4, 2.5 mM CaCl2), 0.01% of Triton X100 at 37° C. LasB activity (corresponding to fluorescence emission induced by substrate hydrolysis) is measured over 30 min at 37° C. with a fluorescence plate reader such as the Perkin Elmer Envision or similar. Different range of inhibitor concentrations are routinely assessed depending of inhibitor potency from 0.0016 to 200 μM (2-fold dilutions series) in order to determine IC50.
The equation used to calculate the Ki from IC50 is: Ki=IC50/(1+([S]/Km)) where [S]=250 μM and Km=214 μM.

For experiment [2], the target named is T2, LasB elastase activity of dialysed supernatant from P. aeruginosa PAO1 (Pseudomonas aeruginosa, UniProt P14756).
T2 construct: Culture supernatants are recovered by centrifugation and filtrated through a 0.22 μM filter; endogenous in cells; host or cells: P. aeruginosa strain PAO1, culture supernatant, filtered and dialysed
T2 sequence (P14756 198-498): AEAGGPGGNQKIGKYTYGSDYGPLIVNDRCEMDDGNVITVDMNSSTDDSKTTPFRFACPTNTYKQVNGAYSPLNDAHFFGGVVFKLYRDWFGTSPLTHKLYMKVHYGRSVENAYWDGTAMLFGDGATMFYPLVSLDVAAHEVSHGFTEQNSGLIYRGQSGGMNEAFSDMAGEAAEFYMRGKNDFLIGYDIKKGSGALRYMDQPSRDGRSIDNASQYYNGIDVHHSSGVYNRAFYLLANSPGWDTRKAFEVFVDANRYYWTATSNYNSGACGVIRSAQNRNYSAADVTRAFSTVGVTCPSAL
Nature of the experiment: Elastin Congo-Red assay to determine % inhibition (dialysed PAO1 supernatant). Conditions: read-out: Elastin hydrolysis % inhibition @ 25 μM inhibitor concentration. Type of experiment: biochemical. The procedure:
as §1
The Elastin assay uses as source of enzyme dialysed supernatant from P. aeruginosa PAO1 and the Elastin Congo-Red as substrate. The natural LasB substrate, elastin, is complexed with the congo-red dye (Elastin Congo-Red, ECR). The elastolysis activity from the culture supernatant will degrade elastin and release the congo-red dye into the supernatant. This red dye release can be measured with a spectrophotometer.
Method: To determine LasB elastase activity and assess compound inhibition, an overnight culture of P. aeruginosa strain PAO1 is diluted in LB medium. After reaching an OD600nm of 0.6, this culture is diluted and incubated for additional 18-24 hours in a shaking incubator. Culture supernatants are recovered by centrifugation and filtrated through a […] filter. These supernatants are dialysed (filtration molecules <20 kDa) into a 50 mM Tris-HCl pH 7.4, 2.5 mM CaCl2 solution at 4° C. under agitation for 24 hours. Supernatant dialysed is then mixed volume/volume with the ECR suspension (20 mg/mL of ECR in 100 mM Tris-HCl pH 7.4 buffer supplemented with 1 mM CaCl2)) supplemented with Triton X100 (final concentration of 0.01%) in presence of DMSO (positive control) and/or different concentrations of compound (routinely 50 to 1.56 μM). As a negative control, the dialysed supernatant is replaced by Tris-HCl solution (50 mM Tris-HCl pH 7.4, 2.5 mM CaCl2). The mixed reaction is then incubated overnight in a 37° C. shaking incubator. The reaction supernatant is recovered by centrifugation and the release of congo-red is measured by its absorbance at 495 nm (OD495nm).
Percentage inhibition is determined using the following equation:
((OD495 nm value of positive control−OD495nm value of negative control)−(OD495nm value of treated supernatant−OD495nm value of negative control))/(OD495nm value of positive control−OD495nm value of negative control)×100.

Bounds are passed on as bounds.

T1 sequence (P14756 198-498): as above

`NC(=O)c1cccc2sc(CNC(=O)C3(CC(=O)O)Cc4ccccc4C3)nc12` [Example 1, 2-[2-[(4-carbamoyl-1,3-benzothiazol-2-yl)methylcarbamoyl]indan-2-yl]acetic acid] showed a Ki in experiment [1] of 200 to 10000 nM. Further, the inhibition at 25 µM in experiment [2] was in the range of 10 to 60%. Take `O=C(O)CC1(C(=O)NCc2nc3c(C(=O)N4CCCC4)cccc3s2)Cc2ccccc2C1` [Example 2, 2-[2-[[4-(pyrrolidine-1-carbonyl)-1,3-benzothiazol-2-yl]methylcarbamoyl]indan-2-yl]acetic acid]: the Ki in experiment [1] is 200 to 10000 nM. `O=C(O)CC1(C(=O)NCc2nc3c(S(=O)(=O)N4CCCC4)cccc3s2)Cc2ccccc2C1` [Example 3, 2-[2-[(4-pyrrolidin-1-ylsulfonyl-1,3-benzothiazol-2-yl)methylcarbamoyl]indan-2-yl]acetic acid] came in with a Ki in experiment [1] of 50 to 200 nM. Further, the inhibition at 25 µM in experiment [2] fell in the range of 60 to 80%.

Regarding `NS(=O)(=O)c1cccc2sc(CNC(=O)C3(CC(=O)O)Cc4ccccc4C3)nc12` [Example 4, 2-[2-[(4-sulfamoyl-1,3-benzothiazol-2-yl)methylcarbamoyl]indan-2-yl]acetic acid], the Ki in experiment [1] is 200 to 10000 nM. The compound `O=C(O)CC1(C(=O)NCc2nc3c(S(=O)(=O)N4CCNCC4)cccc3s2)Cc2ccccc2C1` [Example 5, 2-[2-[(4-piperazin-1-ylsulfonyl-1,3-benzothiazol-2-yl)methylcarbamoyl]indan-2-yl]acetic acid] registered a Ki in experiment [1] of 200 to 10000 nM. As for `NC1CCN(S(=O)(=O)c2cccc3sc(CNC(=O)C4(CC(=O)O)Cc5ccccc5C4)nc23)C1` (centres unmarked) [Example 6, 2-[2-[[4-(3-aminopyrrolidin-1-yl)sulfonyl-1,3-benzothiazol-2-yl]methylcarbamoyl]indan-2-yl]acetic acid], the Ki in experiment [1] lay within 50 to 200 nM. Further, in experiment [2], the inhibition at 25 µM lay in the range of 60 to 80%. In the case of `CS(=O)(=O)c1cccc2sc(CNC(=O)C3(CC(=O)O)Cc4ccccc4C3)nc12` [Example 7, 2-[2-[(4-methylsulfonyl-1,3-benzothiazol-2-yl)methylcarbamoyl]indan-2-yl]acetic acid], the Ki in experiment [1] is 200 to 10000 nM.

For `COc1cc2sc(CNC(=O)C3(CC(=O)O)Cc4ccccc4C3)nc2cc1OCC(=O)N1CCN(C)CC1` [Example 8, 2-[2-[[6-methoxy-5-[2-(4-methylpiperazin-1-yl)-2-oxo-ethoxy]-1,3-benzothiazol-2-yl]methylcarbamoyl]indan-2-yl]acetic acid], in experiment [1], the Ki lay within 50 to 200 nM. In experiment [2], the inhibition at 25 µM was 60 to 80%. `COc1cc2sc(CNC(=O)C3(CC(=O)O)Cc4cc(F)c(F)cc4C3)nc2cc1OCCN1CCOCC1` [Example 10, 2-[5,6-difluoro-2-[[6-methoxy-5-(2-morpholinoethoxy)-1,3-benzothiazol-2-yl]methylcarbamoyl]indan-2-yl]acetic acid] had a Ki in experiment [1] of less than 50 nM. Further, the inhibition at 25 µM in experiment [2] is more than 80%. The corresponding values for `COc1cc2sc(CNC(=O)C3(CC(=O)O)Cc4cc(F)c(F)cc4C3)nc2cc1OCC(=O)N1CCN(C)CC1` [Example 12, 2-[5,6-difluoro-2-[[6-methoxy-5-[2-(4-methylpiperazin-1-yl)-2-oxo-ethoxy]-1,3-benzothiazol-2-yl]methylcarbamoyl]indan-2-yl]acetic acid] are 50 to 200 nM and 60 to 80%. Consider `COc1cc2sc(CNC(=O)C3(CC(=O)[O-])Cc4cc(F)c(F)cc4C3)nc2cc1OCC[N+]1(C)CCOCC1` [Example 13, 2-[5,6-difluoro-2-[[6-methoxy-5-[2-(4-methylmorpholin-4-ium-4-yl)ethoxy]-1,3-benzothiazol-2-yl]methylcarbamoyl]indan-2-yl]acetate], for which the Ki in experiment [1] lay within 50 to 200 nM. For the same compound, in experiment [2], the inhibition at 25 µM lay in the range of 60 to 80%. On to `CN(C)C1CN(C(=O)c2ccc3nc(CNC(=O)C4(CC(=O)O)Cc5ccccc5C4)sc3c2)C1` [Example 26, 2-[2-[[6-[3-(dimethylamino)azetidine-1-carbonyl]-1,3-benzothiazol-2-yl]methylcarbamoyl]indan-2-yl]acetic acid], for which the Ki in experiment [1] was 200 to 10000 nM. In turn, `CN(C)CCNC(=O)c1ccc2sc(CNC(=O)C3(CC(=O)O)Cc4ccccc4C3)nc2c1` [Example 28, 2-[2-[[5-[2-(dimethylamino)ethylcarbamoyl]-1,3-benzothiazol-2-yl]methylcarbamoyl]indan-2-yl]acetic acid] gave an inhibitory constant (Ki) in experiment [1] of 200 to 10000 nM. The compound `CN1CCN(C(=O)c2ccc3nc(CNC(=O)C4(CC(=O)O)Cc5ccccc5C4)sc3c2)CC1` [Example 29, 2-[2-[[6-(4-methylpiperazine-1-carbonyl)-1,3-benzothiazol-2-yl]methylcarbamoyl]indan-2-yl]acetic acid] yielded a Ki in experiment [1] of 200 to 10000 nM. On the same count and under the same terms, as for `CN(C)CCNC(=O)c1ccc2nc(CNC(=O)C3(CC(=O)O)Cc4ccccc4C3)sc2c1` [Example 30, 2-[2-[[6-[2-(dimethylamino)ethylcarbamoyl]-1,3-benzothiazol-2-yl]methylcarbamoyl]indan-2-yl]acetic acid], the figure is 200 to 10000 nM; as for `CN(C)CCCN1CCN(C(=O)c2ccc3sc(CNC(=O)C4(CC(=O)O)Cc5ccccc5C4)nc3c2)CC1` [Example 31, 2-[2-[[5-[4-[3-(dimethylamino)propyl]piperazine-1-carbonyl]-1,3-benzothiazol-2-yl]methylcarbamoyl]indan-2-yl]acetic acid], 200 to 10000 nM. `COc1cc2sc(CNC(=O)C3(CC(=O)[O-])Cc4ccccc4C3)nc2cc1C(=O)N1CCC([N+](C)(C)C)CC1` [Example 39, 2-[2-[[6-methoxy-5-[4-(trimethylammonio)piperidine-1-carbonyl]-1,3-benzothiazol-2-yl]methylcarbamoyl]indan-2-yl]acetate] had a Ki in experiment [1] of 200 to 10000 nM. As for `O=C(O)CC1(C(=O)NCc2nc3ccc(OCCCO)cc3s2)Cc2ccccc2C1` [Example 50, 2-[2-[[6-(3-hydroxypropoxy)-1,3-benzothiazol-2-yl]methylcarbamoyl]indan-2-yl]acetic acid], the Ki in experiment [1] lay in the range of 50 to 100 nM. In experiment [1], `CCCOc1ccc2nc(CNC(=O)C3(CC(=O)O)Cc4ccccc4C3)sc2c1` [Example 51, 2-[2-[(6-propoxy-1,3-benzothiazol-2-yl)methylcarbamoyl]indan-2-yl]acetic acid] yielded a Ki of 50 to 100 nM. In experiment [1], `COc1cc2sc(CNC(=O)C3(CC(=O)O)Cc4ccccc4C3)nc2cc1OCCCN(C)C` [Example 52, 2-[2-[[5-[3-(dimethylamino)propoxy]-6-methoxy-1,3-benzothiazol-2-yl]methylcarbamoyl]indan-2-yl]acetic acid] registered a Ki of 50 to 100 nM. On the same count and under the same terms, as for `COc1cc2sc(CNC(=O)C3(CC(=O)[O-])Cc4ccccc4C3)nc2cc1OCCOCC[N+](C)(C)C` [Example 54, 2-[2-[[6-methoxy-5-[2-[2-(trimethylammonio)ethoxy]ethoxy]-1,3-benzothiazol-2-yl]methylcarbamoyl]indan-2-yl]acetate], the figure is 50 to 100 nM; as for `COc1cc2sc(CNC(=O)C3(CC(=O)[O-])Cc4cc(F)c(F)cc4C3)nc2cc1OCC[N+](C)(C)C` [Example 56, 2-[5,6-difluoro-2-[[6-methoxy-5-[2-(trimethylammonio)ethoxy]-1,3-benzothiazol-2-yl]methylcarbamoyl]indan-2-yl]acetate], 50 to 100 nM.
